The record followed here is patent publication US8110687B2, “Bicyclic compounds with kinase inhibitory activity” (Millennium Pharmaceuticals, Inc., priority 2005, dated 2012).

As a reminder, the IC50 is the concentration needed to halve the response being measured.

The test system of this test is phospho-ERK formation (Raf kinase activity) in A375 cells. The test is described as follows: Phospho-ERK ELISA assay. The test is classed as cell-based. The settings on record: Homo sapiens, A-375, 3 h, 3 hours with inhibitor, read-out: IC50, inhibition of the formation of phospho-ERK. The method, then: Inhibition of Raf kinase activity in whole cell systems can be assessed by determining the decrease in phosphorylation of Raf kinase substrates. Any known Raf kinase substrate can be used to measure inhibition of Raf kinase activity in a whole cell system.
Medium was removed, and cells were incubated with Raf kinase inhibitors for 3 hours at 37° C. Medium was removed, and cells were fixed with 4% paraformaldehyde for 15 minutes at room temperature.
Methanol was added for 15 min. Cells were removed and blocked with 10% sheep serum and 1% BSA in PBS overnight at 4° C. Cells were incubated with anti-p44/42MAPK antibody (1:100, Cell Signaling Technologies, #9101L) (20 μL/well) for one hour at room temperature. After washing with PBS three times, cells were stained with anti-rabbit horseradish peroxidase-linked antibody from donkey (1:100, Amersham Bioscience #NA934V) for 1 hour at room temperature. Cells were washed three times with 0.5% Tween-20 in PBS and twice with PBS. 3,3′, 5,5′-Tetramethylbenzidine (TMB) liquid substrate system (Sigma, #T8665) (50 μL/well) was added, and cells were incubated for 30-45 minutes at room temperature. Optical density was read at 650 nm. Cells were then washed 3-5 times with PBS to remove color solution. Results were normalized for the protein content in each well using a BCA protein assay kit (Pierce).
Background: ELISA stands for enzyme-linked immunosorbent assay.
With `CC(C)NC(=O)c1cc(Oc2ccc3c(c2)CC(C(=O)Nc2cc(CN)cc(C(F)(F)F)c2)CC3)ccn1` (stereo not shown) [Compound I-229, 4-{[7-({[3-(aminomethyl)-5-(trifluoromethyl)phenyl]amino}carbonyl)-5,6,7,8-tetrahydronaphthalen-2-yl]oxy}-N-isopropylpyridine-2-carboxamide], the IC50 is not above 25 µM.

Take `CC(C)(C)c1cccc(NC(=O)C2CCc3ccc(Oc4ccnc(N)c4)cc3C2)c1` (stereo not shown) [Compound I-235, 7-[(2-aminopyridin-4-yl)oxy]-N-(3-tert-butylphenyl)-1,2,3,4-tetrahydronaphthalene-2-carboxamide]: the IC50 was not above 25 µM.

Regarding `CNC(=O)c1cc(Oc2ccc3c(c2)C[C@H](C(=O)Nc2cc(CN)cc(C(F)(F)F)c2)CC3)ccn1` [Compound I-244, 4-{[(7R)-7-({[3-(aminomethyl)-5-(trifluoromethyl)phenyl]amino}carbonyl)-5,6,7,8-tetrahydronaphthalen-2-yl]oxy}-N-methylpyridine-2-carboxamide], the IC50 is not above 25 µM.

As for `CC(=O)NCc1cc(Oc2ccc3c(c2)CC(C(=O)Nc2cccc(C(C)(C)C)c2)CC3)ccn1` (stereo not shown) [Compound I-246, 7-({2-[(acetylamino)methyl]pyridin-4-yl}oxy)-N-(3-tert-butylphenyl)-1,2,3,4-tetrahydronaphthalene-2-carboxamide], the IC50 was not above 25 µM.

In the case of `CC(C)(C)c1cccc(NC(=O)C2CCc3ccc(Oc4ccnc(NS(C)(=O)=O)c4)cc3C2)c1` (stereo not shown) [Compound I-254, N-(3-tert-butylphenyl)-7-({2-[(methylsulfonyl)amino]pyridin-4-yl}-oxy)-1,2,3,4-tetrahydronaphthalene-2-carboxamide], the IC50 was not above 25 µM.

Take `O=C(Nc1cc(C(F)(F)F)ccc1OCCN1CCNCC1)C1CCc2ccc(Oc3ccnc(C4=NCCN4)c3)cc2C1` (stereo not shown) [Compound I-261, 7-{[2-(4,5-dihydro-1H-imidazol-2-yl)pyridin-4-yl]oxy}-N-[2-(2-piperazin-1-ylethoxy)-5-(trifluoromethyl)phenyl]-1,2,3,4-tetrahydronaphthalene-2-carboxamide]: the IC50 is not above 25 µM.

As to `NCc1cc(NC(=O)C2CCc3ccc(Oc4ccnc(N)c4)cc3C2)cc(C(F)(F)F)c1` (stereo not shown) [Compound I-271, N-[3-(aminomethyl)-5-(trifluoromethyl)phenyl]-7-[(2-aminopyridin-4-yl)oxy]-1,2,3,4-tetrahydronaphthalene-2-carboxamide], the concentration for half-maximal inhibition (IC50) is not above 25 µM.

In the case of `CC(=O)Nc1cc(Oc2ccc3c(c2)CC(C(=O)Nc2ccc(C(F)(F)F)cc2)CC3)ccn1` (stereo not shown) [Compound I-281, 7-{[2-(acetylamino)pyridin-4-yl]oxy}-N-[4-(trifluoromethyl)phenyl]-1,2,3,4-tetrahydronaphthalene-2-carboxamide], the IC50 was not above 25 µM.

Regarding `CC(C)(C)c1cccc(NC(=O)c2cnc3ccc(Oc4ccncc4)cc3c2)c1` [Compound I-299, N-(3-tert-butylphenyl)-6-(pyridin-4-yloxy)quinoline-3-carboxamide], the IC50 is not above 25 µM.

Turning to `CC(=O)Nc1cc(Oc2ccc3c(c2)CC(C(=O)Nc2ccc(Cl)cc2)CC3)ccn1` (stereo not shown) [Compound I-303, 7-{[2-(acetylamino)pyridin-4-yl]oxy}-N-(4-chlorophenyl)-1,2,3,4-tetrahydronaphthalene-2-carboxamide], the IC50 is not above 25 µM.

As for `CC(C)(C)c1cccc(NC(=O)C2CCc3ccc(Oc4ccnc(CN)c4)cc3C2)c1` (stereo not shown) [Compound I-331, 7-{[2-(aminomethyl)pyridin-4-yl]oxy}-N-(3-tert-butylphenyl)-1,2,3,4-tetrahydronaphthalene-2-carboxamide], the IC50 is not above 25 µM.

In the case of `CC(C)(C)c1cccc(NC(=O)c2ccc3ccc(Oc4ccnc(C#N)c4)cc3c2)c1` [Compound I-340, N-(3-tert-butylphenyl)-7-[(2-cyanopyridin-4-yl)oxy]-2-naphthamide], the IC50 is not above 25 µM.

For `Cn1cc(-c2cc(Oc3ccc4c(c3)CC(C(=O)Nc3cc(CN5CCCC5)cc(C(F)(F)F)c3)CC4)ccn2)cn1` (stereo not shown) [Compound I-344, 7-{[2-(1-methyl-1H-pyrazol-4-yl)pyridin-4-yl]oxy}-N-[3-(pyrrolidin-1-ylmethyl)-5-(trifluoromethyl)phenyl]-1,2,3,4-tetrahydronaphthalene-2-carboxamide], the IC50 is not above 25 µM.

As to `CC(C)(C)c1cccc(NC(=O)C2COc3ccc(Oc4ccnc(C5=NCCN5)c4)cc3C2)c1` (stereo not shown) [Compound I-349, N-(3-tert-butylphenyl)-6-{[2-(4,5-dihydro-1H-imidazol-2-yl)pyridin-4-yl]oxy}chromane-3-carboxamide], the IC50 is not above 25 µM.

With `O=C(Nc1cc(OCCN2CCCC2)cc(C(F)(F)F)c1)c1cnc2ccc(Oc3ccncc3)cc2c1` [Compound I-351, 6-(pyridin-4-yloxy)-N-[3-(2-pyrrolidin-1-ylethoxy)-5-(trifluoromethyl)phenyl]quinoline-3-carboxamide], the IC50 is not above 25 µM.

Regarding `NCc1cc(NC(=O)C2CCc3ccc(Oc4ccnc(C(=O)N5CCCC5)c4)cc3C2)cc(C(F)(F)F)c1` (stereo not shown) [Compound I-362, N-[3-(aminomethyl)-5-(trifluoromethyl)phenyl]-7-{[2-(pyrrolidin-1-ylcarbonyl)pyridin-4-yl]oxy}-1,2,3,4-tetrahydronaphthalene-2-carboxamide], the IC50 was not above 25 µM.

Regarding `N=C(N)c1cc(Oc2ccc3ccc(C(=O)Nc4ccc(CN)c(C(F)(F)F)c4)cc3c2)ccn1` [Compound I-381, 7-({2-[amino(imino)methyl]pyridin-4-yl}oxy)-N-[4-(aminomethyl)-3-(trifluoromethyl)phenyl]-2-naphthamide], the IC50 is not above 25 µM.

As to `CN1CCN(c2cc(Oc3ccc4c(c3)CC(C(=O)Nc3cccc(C(C)(C)C)c3)CC4)ccn2)CC1` (stereo not shown) [Compound I-415, N-(3-tert-butylphenyl)-7-{[2-(4-methylpiperazin-1-yl)pyridin-4-yl]oxy}-1,2,3,4-tetrahydronaphthalene-2-carboxamide], the IC50 was not above 25 µM.

With `CCNC(=O)NCc1cc(NC(=O)C2CCc3ccc(Oc4ccnc(C(=O)NC)c4)cc3C2)cc(C(F)(F)F)c1` (stereo not shown) [Compound I-420, 4-{[7-({[3-({[(ethylamino)carbonyl]amino}methyl)-5-(trifluoromethyl)phenyl]amino}carbonyl)-5,6,7,8-tetrahydronaphthalen-2-yl]-oxy}-N-methylpyridine-2-carboxamide], the concentration for half-maximal inhibition (IC50) is not above 25 µM.

Take `CNC(=O)c1cc(Oc2ccc3c(c2)CC(NC(=O)c2ccc(Cl)c(C(F)(F)F)c2)CC3)ccn1` (stereo not shown) [Compound I-444, 4-[(7-{[4-chloro-3-(trifluoromethyl)benzoyl]amino}-5,6,7,8-tetrahydronaphthalen-2-yl)oxy]-N-methylpyridine-2-carboxamide]: the IC50 was not above 25 µM.

As for `CC(C)(C)c1cccc(NC(=O)c2cnc3ccc(Oc4ccnc(C#N)c4)cc3c2)c1` [Compound I-448, N-(3-tert-butylphenyl)-6-[(2-cyanopyridin-4-yl)oxy]quinoline-3-carboxamide], the IC50 is not above 25 µM.

Turning to `CNC(=O)c1cc(Oc2ccc3c(c2)CC(NC(=O)c2cccc(C(C)(C)C)c2)CC3)ccn1` (stereo not shown) [Compound I-460, 4-({7-[(3-tert-butylbenzoyl)amino]-5,6,7,8-tetrahydronaphthalen-2-yl}oxy)-N-methylpyridine-2-carboxamide], the IC50 is not above 25 µM.
